Measured values from PubChem BioAssay AID1963445 (Molecular Pharmacology Branch, DTP, NCI, 2024).
Where “and” joins values, the source holds several entries; their conditions need not be identical. Equal values may be shown once.

Test system: MCF7 complex spheroid growth, % test/control
Assay: Anticancer human tumor MCF7 cell line growth inhibition [Asc];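 note: spheroids exposed to compounds for 7 days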;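 for viability, T/C: 100% = DMSO vehicle control wells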
Conditions: for viability, T/C: stronger effect = lower value
Procedure, shortened: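 Stromal components (HUVEC and hMSC) are co-assembled with the cancer cells into multicellular spheroids. Drugs are then added singly or paired, at concentrations falling by half-log increments from a clinically achievable maximum, capped at 10 microM without known Cmax.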

`Cc1nc(N2CCC3(CC2)COC(C)C3N)c(CO)nc1Sc1ccnc(N)c1Cl` (centres undefined) + CNC(C)C(=O)NC1CN(S(=O)(=O)c2cccc(S(=O)(=O)N3CCC4CCC(C(=O)NC(c5ccccc5)c5ccccc5)N4C(=O)C(NC(=O)C(C)NC)C3)c2)CCC2CCC(C(=O)NC(c3ccccc3)c3ccccc3)N2C1=O showed an IC50 (curve of first compound, second compound 0.00316 µM) of less than 9.49 nM, an IC50 (curve of first compound, second compound 0.01 µM) of less than 9.49 nM and an IC50 (curve of first compound, second compound 0.0316 µM) of less than 9.49 nM. For the same compound, the IC50 (curve of first compound, second compound 0.1 µM) was less than 9.49 nM, the IC50 (curve of first compound, second compound 0.316 µM) was less than 9.49 nM and the IC50 (curve of first compound, second compound 1 µM) was less than 9.49 nM. For the same compound, the viability, T/C (second compound 0.00316 µM, first compound 0.00949 µM) was 26.7%, the viability, T/C (second compound 0.00316 µM, first compound 0.03 µM) was 31.8% and the viability, T/C (second compound 0.00316 µM, first compound 0.0949 µM) was 19.9%. It also gave a viability, T/C (second compound 0.00316 µM, first compound 0.3 µM) of 17.6%, a viability, T/C (second compound 0.00316 µM, first compound 0.949 µM) of 10.6% and a viability, T/C (second compound 0.00316 µM, first compound 3 µM) of 10.9%. For the same compound, the viability, T/C (second compound 0.01 µM, first compound 0.00949 µM) was 15.9%, the viability, T/C (second compound 0.01 µM, first compound 0.03 µM) was 11.2% and the viability, T/C (second compound 0.01 µM, first compound 0.0949 µM) was 10.3%. It also gave a viability, T/C (second compound 0.01 µM, first compound 0.3 µM) of 13%, a viability, T/C (second compound 0.01 µM, first compound 0.949 µM) of 11.4% and a viability, T/C (second compound 0.01 µM, first compound 3 µM) of 11.1%. For the same compound, the viability, T/C (second compound 0.0316 µM, first compound 0.00949 µM) was 12.7%, the viability, T/C (second compound 0.0316 µM, first compound 0.03 µM) was 10.7% and the viability, T/C (second compound 0.0316 µM, first compound 0.0949 µM) was 12.2%. The viability, T/C (second compound 0.0316 µM, first compound 0.3 µM) was 11.9%, the viability, T/C (second compound 0.0316 µM, first compound 0.949 µM) was 11.3% and the viability, T/C (second compound 0.0316 µM, first compound 3 µM) was 9.37%. For the same compound, the viability, T/C (second compound 0.1 µM, first compound 0.00949 µM) was 10.1%, the viability, T/C (second compound 0.1 µM, first compound 0.03 µM) was 12.7% and the viability, T/C (second compound 0.1 µM, first compound 0.0949 µM) was 11.3%. It also gave a viability, T/C (second compound 0.1 µM, first compound 0.3 µM) of 10.4%, a viability, T/C (second compound 0.1 µM, first compound 0.949 µM) of 10.6% and a viability, T/C (second compound 0.1 µM, first compound 3 µM) of 10.1%. The viability, T/C (second compound 0.316 µM, first compound 0.00949 µM) was 13.9%, the viability, T/C (second compound 0.316 µM, first compound 0.03 µM) was 12.2% and the viability, T/C (second compound 0.316 µM, first compound 0.0949 µM) was 11.5%. It also gave a viability, T/C (second compound 0.316 µM, first compound 0.3 µM) of 11.6%, a viability, T/C (second compound 0.316 µM, first compound 0.949 µM) of 12.3% and a viability, T/C (second compound 0.316 µM, first compound 3 µM) of 12%. The viability, T/C (second compound 1 µM, first compound 0.00949 µM) was 13.6%, the viability, T/C (second compound 1 µM, first compound 0.03 µM) was 12.7% and the viability, T/C (second compound 1 µM, first compound 0.0949 µM) was 14.2%. The viability, T/C (second compound 1 µM, first compound 0.3 µM) was 11.9%, the viability, T/C (second compound 1 µM, first compound 0.949 µM) was 12.6% and the viability, T/C (second compound 1 µM, first compound 3 µM) was 11.9%.
With `CNC(C)C(=O)NC1CN(S(=O)(=O)c2cccc(S(=O)(=O)N3CCC4CCC(C(=O)NC(c5ccccc5)c5ccccc5)N4C(=O)C(NC(=O)C(C)NC)C3)c2)CCC2CCC(C(=O)NC(c3ccccc3)c3ccccc3)N2C1=O` (centres undefined) the viability, T/C (compound 0.01 µM) was 14.2% [middle of 9 runs], the viability, T/C (compound 0.0316 µM) was 11.7% [middle of 9 runs] and the viability, T/C (compound 0.1 µM) was 14.7% [middle of 8 runs]. For the same compound, the viability, T/C (compound 0.316 µM) was 13.2% [middle of 9 runs], the viability, T/C (compound 1 µM) was 13.2% [middle of 9 runs] and the IC50 (compound alone, run of 11/15/2022) was less than 3.16 nM. For the same compound, the IC50 (curve of compound) was 5.24 nM and 6.67 nM.
